Where two headings read alike, the source gives them in different places.
What was measured:
Jurkat cells = experiment: XTT-based cellular proliferation assay, Jurkat; assay type: cell-based; conditions: Homo sapiens, read-out: IC50 cellular proliferation (linear regression analysis)
[1] = tested on: native leukemia cells (AML patient samples); experiment: XTT-based proliferation assay, native leukemia cells ex vivo
Method: Bone marrow aspirate and peripheral blood samples from consented patients with acute leukemia as well as samples from healthy blood and bone marrow donors were collected in 5000 U heparin with the approval of the ethics committee of the Medical Faculties of the University of Tübingen or the University of Ulm. Mononuclear cells were isolated by Ficoll-Hypaque density gradient fractionation. Cells were cultured in DMEM medium, supplemented with 20% fetal bovine serum (GIBCO/Invitrogen, Darmstadt, Germany or Biochrom AG, Berlin, Germany), 1% penicillin G (10,000 units/mL), and streptomycin (10,000 μg/mg) and 2 mmol/L L-glutamine.

[2] = tested on: HMC1.1, HMC1.2, GIST882 and GIST48 cells; experiment: induction of apoptosis in imatinib-resistance cell models; assay type: cell-based, human; conditions: HMC1.1/HMC1.2 and GIST882/GIST48; irrespective of the sensitivity profile towards TKI
Description: We tested this theory using two cell models comparing primary TK-sensitive mutations with secondary TK-insensitive mutations: The first model consists of a mast cell leukemia cell line (HMC1.1), which harbors an imatinib-sensitive KIT V560G mutation – and a derivative sister cell line (HMC1.2), which is characterized by a secondary activation loop KIT D816V mutation, rendering the cells insensitive towards imatinib. Additionally we tested the GIST solid tumor cell line GIST882 (harboring an imatinib-sensitive KIT K642E mutation) with a second cell line, which was established from a patient with relapsing GIST under imatinib therapy (GIST48). This cell line harbors a primary homozygous juxtamembrane KIT mutation (V560D) plus a secondary heterozygous imatinib-insensitive activation loop mutation (D820A).
Supplementary file 1476-4598-12-46-S3.tiff: Additional file 3: Figure S2 PI3K/MTOR inhibition in imatinib-resistance models. Dual PI3K/MTOR inhibition is effective in tyrosine kinase inhibitor-resistant cell models. […] Dose-effect plots are provided indicating sensitivity profiles of both dual PI3K/MTOR inhibitors that are independent of the sensitivity patterns for imatinib. Linear regression analyses to calculate IC50 estimates are provided for all cell lines. […]

Ba/F3 KIT WT [3] = experiment: Inhibition of proliferation (XTT), isogenic Ba/F3 model; assay type: cell-based, murine; conditions: Mus musculus
Method: (§1) FLT3 S451F cDNA cloned into a pCMVneo plasmid vector [53] was generously provided by Dr. Fröhling, University of Ulm, Germany. KIT wildtype cDNA cloned into a pJP1563 plasmid vector was obtained from the DNASU Plasmid Repository at the Biodesign Institute of the Arizona State University (ASU). Lipofection transfection into the parental Ba/F3 cell line was performed to stably express KIT wildtype or mutant FLT3 S451F by double selection for neomycin (pCMVneo plasmid), blasticidin (pJP1563 plasmid) or […] (G418; all other plasmids) resistance and IL-3-independent growth. The Ba/F3 KIT wildtype cell line was cultured using recombinant human stem cell factor (SCF/KIT Ligand, R&D, Minneapolis, MN) as a growth supplement.

[4] = tested on: native mononuclear cells derived from bone marrow donors; experiment: Annexin V/PI apoptosis assay, donor mononuclear cells ex vivo; assay type: cell-based, human
Method: However, this observation will need prospective verification on a larger patient cohort.
(§2) Translocation of phosphatidylserine from the inner to the outer leaflet of the plasma membrane as an early indicator of apoptosis was analyzed using an Annexin V-based assay (Immunotech, Marseilles, France) and a FACScalibur® flow cytometer loaded with CellQuest® analysis software (BD, Heidelberg, Germany).

Ba/F3 FLT3 D835Y = experiment: Inhibition of proliferation (XTT), isogenic Ba/F3 model; assay type: cell-based, murine; conditions: Mus musculus
Ba/F3 FLT3 S451F = experiment: Induction of apoptosis, isogenic Ba/F3 model; assay type: cell-based, murine
Method: as §1, §2

Ba/F3 KIT WT [5] = experiment: Induction of apoptosis, isogenic Ba/F3 model; assay type: cell-based, murine
Method: as §1, §2

Ba/F3 FLT3 N841H = experiment: Inhibition of proliferation (XTT), isogenic Ba/F3 model; assay type: cell-based, murine; conditions: Mus musculus
Ba/F3 FLT3 WT = experiment: as above; assay type: cell-based, murine; conditions: Mus musculus
Ba/F3 BCR/ABL1 = experiment: as above; assay type: cell-based, murine; conditions: Mus musculus
Ba/F3 FLT3 K663Q = experiment: as above; assay type: cell-based, murine; conditions: Mus musculus
MOLM14 cells (FLT3 ITD) = experiment: annexin V-based apoptosis assay, MOLM14; assay type: cell-based; conditions: Homo sapiens, MOLM-14, read-out: IC50 induction of apoptosis
Method: as §2

[6] = Inhibition of proliferation (XTT), isogenic Ba/F3 model; assay type: cell-based, murine; conditions: mouse, Ba/F3 parental cells (with IL3), Ba/F3 Parental (w/ IL3)
Ba/F3 Parental (w/ IL3) = experiment: as above; assay type: cell-based, murine
Ba/F3 KIT D816Y = experiment: as above; assay type: cell-based, murine; conditions: Mus musculus
Ba/F3 KIT D816V = experiment: as above; assay type: cell-based, murine; conditions: Mus musculus
native leukemia blasts = experiment: Annexin V/PI apoptosis assay, native leukemia blasts treated ex vivo; assay type: cell-based; conditions: Homo sapiens
Method: as §2

Ba/F3 FLT3 ITD = experiment: Inhibition of proliferation (XTT), isogenic Ba/F3 model; assay type: cell-based, murine
[7] = BaF3, 10 nM, read-out: Inhibition of proliferation At 10 nM (% alive)
[8] = BaF3, 100 nM, read-out: Inhibition of proliferation At 100 nM (% alive)

What does the source list for `Cn1c(=O)n(-c2ccc(C(C)(C)C#N)cc2)c2c3cc(-c4cnc5ccccc5c4)ccc3ncc21` [NVP-BEZ235]?
IC50 (Jurkat cells): 50 nM; IC50 ([1]; Homo sapiens, read-out: Proliferation IC50, Pt. Nr. 303, AML negative for FLT3 or KIT mutations, ex vivo): > 5000 nM; IC50 ([1]; Homo sapiens, read-out: Proliferation IC50, Pt. Nr. 556, FLT3 mutant-TKD2 positive AML, ex vivo): 24 nM; Proliferation IC50 ([1]; Pt. Nr. 556, FLT3 mutant-TKD2 positive AML, ex vivo): low nanomolar range; IC50 ([1]; read-out: Proliferation IC50, Pt. Nr. 303, AML negative for FLT3 or KIT mutations, ex vivo): 6140 nM; induction of apoptosis [2]: potently induced apoptosis; IC50 (Ba/F3 KIT WT [3]; BaF3): 6 nM; viability at 0.01 µM (Ba/F3 KIT WT [3]; [7]): 12%; viability at 0.1 µM (Ba/F3 KIT WT [3]; [8]): 11%; Apoptosis IC50 ([4]; Pt. Nr. 538 (donor)): Not reached; Apoptosis IC50 ([4]; Pt. Nr. 554 (donor)): Not reached; IC50 (Ba/F3 FLT3 D835Y; BaF3): 5 nM; viability at 0.01 µM (Ba/F3 FLT3 D835Y; [7]): 37%; viability at 0.1 µM (Ba/F3 FLT3 D835Y; [8]): 30%; Induction of apoptosis At 1000 nM (% apopt.) (Ba/F3 FLT3 S451F; 1000 nM): 49%; Induction of apoptosis At 5000 nM (% apopt.) (Ba/F3 FLT3 S451F; 5000 nM): 70%; IC50 (Ba/F3 FLT3 S451F; Mus musculus, BaF3): 741 nM; Induction of apoptosis At 1000 nM (% apopt.) (Ba/F3 KIT WT [5]; 1000 nM): 32%; Induction of apoptosis At 5000 nM (% apopt.) (Ba/F3 KIT WT [5]; 5000 nM): 85%; IC50 (Ba/F3 KIT WT [5]; Mus musculus, BaF3): 1400 nM; IC50 (Ba/F3 FLT3 N841H; BaF3): 9 nM; viability at 0.01 µM (Ba/F3 FLT3 N841H; [7]): 43%; viability at 0.1 µM (Ba/F3 FLT3 N841H; [8]): 47%; IC50 (Ba/F3 FLT3 WT; BaF3): 7 nM; viability at 0.01 µM (Ba/F3 FLT3 WT; [7]): 33%; viability at 0.1 µM (Ba/F3 FLT3 WT; [8]): 28%; IC50 (Ba/F3 BCR/ABL1; BaF3): 131 nM; viability at 0.01 µM (Ba/F3 BCR/ABL1; [7]): 58%; viability at 0.1 µM (Ba/F3 BCR/ABL1; [8]): 50%; IC50 (Ba/F3 FLT3 K663Q; BaF3): 91 nM; viability at 0.01 µM (Ba/F3 FLT3 K663Q; [7]): 57%; viability at 0.1 µM (Ba/F3 FLT3 K663Q; [8]): 51%; IC50 (MOLM14 cells (FLT3 ITD)): > 10000 nM; viability at 0.01 µM ([6]; 10 nM, read-out: Inhibition of proliferation At 10 nM (% alive)): 89%; viability at 0.1 µM ([6]; 100 nM, read-out: Inhibition of proliferation At 100 nM (% alive)): 98%; IC50 (Ba/F3 Parental (w/ IL3); Ba/F3 Parental (w/ IL3)): 2400 nM; IC50 (Ba/F3 Parental (w/ IL3); Mus musculus, BaF3, Ba/F3 Parental (w/ IL3)): ~2400 nM; IC50 (Ba/F3 KIT D816Y; BaF3): 72 nM; viability at 0.01 µM (Ba/F3 KIT D816Y; [7]): 64%; viability at 0.1 µM (Ba/F3 KIT D816Y; [8]): 62%; IC50 (Ba/F3 KIT D816V; BaF3): 8 nM; viability at 0.01 µM (Ba/F3 KIT D816V; [7]): 40%; viability at 0.1 µM (Ba/F3 KIT D816V; [8]): 38%; IC50 (native leukemia blasts; Pt. Nr. 290, ex vivo): 71 nM; IC50 (native leukemia blasts; Pt. Nr. 368, ex vivo): 3180 nM; IC50 (native leukemia blasts; Pt. Nr. 527, ex vivo): 6820 nM; IC50 (native leukemia blasts; Pt. Nr. 528, ex vivo): 371 nM; IC50 (native leukemia blasts; Pt. Nr. 532, ex vivo): 653 nM; IC50 (Ba/F3 FLT3 ITD): 7 nM; viability at 0.01 µM (Ba/F3 FLT3 ITD; Mus musculus, 10 nM, read-out: Inhibition of proliferation At 10 nM (% alive)): 13%; viability at 0.1 µM (Ba/F3 FLT3 ITD; Mus musculus, 100 nM, read-out: Inhibition of proliferation At 100 nM (% alive)): 4%; IC50 (Ba/F3 FLT3 ITD; Mus musculus, Ba/F3 FLT3-ITD): < 10 nM

Source: article PMC3689638, “Cell cycle-dependent activity of the novel dual PI3K-MTORC1/2 inhibitor NVP-BGT226 in acute leukemia” (Molecular Cancer, 2013)
